The values that follow come from patent US20260007717A1, “ANTIMICROBIAL PEPTIDE COMPOUNDS AND METHODS OF USE” (priority 2022, published 2026).

Molecules are shown by their SMILES. Converted amounts (≈) assume the structure as drawn. Where two headings read alike, the source gives them in different places. Positions of bridges follow the written chain, without caps; N, C: chain ends. Non-standard residues stand in square brackets, D forms with d. Residues, ends and D or L forms follow the SMILES beside them. *: point of attachment. Picolinoyl = O=C(c1ccccn1)*; Aib = CC(C)(N)C(=O)O

What all share (type): cell-based
One test has as its system E. coli.
A further test deals with P. gingivalis. How it is done:
(§1) Briefly, P. gingivalis is grown under anaerobic conditions to mid-log phase as per Dominy et al. […] The microtiter plate method outlined by Jansen (ibid) was used to measure MICs. Compounds and bacteria are added to wells of a microtiter plate and grown anaerobically (P. gingivalis) or with CO2 (L. salivarius) for 24 to 72 hours. Growth is measured with light scattering at 592 nm on a plate reader and absorbance plotted against μg/ml of drug in each well.

For another test, the system named is L. salivarius. How it is done:
as §1

As for `CC(=O)N[C@@H](CC(C)C)C(=O)N[C@@H](CC(C)C)C(=O)N[C@@H](CCCNC(=N)N)C(=O)N[C@@H](CCCCN)C(=O)NC(C)(C)C(=O)N[C@@H](CC(C)C)C(=O)N[C@@H](CCCCN)C(=O)N[C@@H](CCCNC(=N)N)C(=O)N[C@@H](CC(C)C)C(=O)NC(C)(C)C(=O)N[C@@H](CO)C(=O)N[C@@H](C)C(N)=O` [SEQ ID NO: 4, Acetyl-LLRK-aib-LKRL-aib-SA-CONH2] (Ac-LLRK[Aib]LKRL[Aib]SA-NH2), in the test with E. coli, the “MIC E. coli” value came to 8 µg/mL (≈ 5.68 µM). The “MIC P. gingivalis” value with P. gingivalis turned out to be 32 µg/mL (≈ 22.7 µM). Further, the “MIC L. salivarius” value against L. salivarius stood at 8 µg/mL (≈ 5.68 µM).
For the molecule `CC(=O)N[C@H](CC(C)C)C(=O)N[C@H](CC(C)C)C(=O)N[C@H](CCCNC(=N)N)C(=O)N[C@H](CCCCN)C(=O)NC(C)(C)C(=O)N[C@H](CC(C)C)C(=O)N[C@H](CCCCN)C(=O)N[C@H](CCCNC(=N)N)C(=O)N[C@H](CC(C)C)C(=O)NC(C)(C)C(=O)N[C@H](CO)C(=O)N[C@H](C)C(=O)N[C@H](CC(C)C)C(=O)N[C@H](CCCNC(=N)N)C(=O)N[C@@H](C(=O)N[C@H](CCCNC(=N)N)C(=O)N[C@H](CC(C)C)C(N)=O)C(C)C` [SEQ ID NO: 11, Acetyl-llrk-aib-lkrl-aib-salrvrl-amide] (Ac-[dL][dL][dR][dK][Aib][dL][dK][dR][dL][Aib][dS][dA][dL][dR][dV][dR][dL]-NH2), the “MIC E. coli” value in the test on E. coli turned out to be 4 µg/mL (≈ 1.95 µM). Besides, in the test with P. gingivalis (anaerobic BHI broth), the “MIC P. gingivalis” value came to 8 µg/mL (≈ 3.91 µM). Further, in the test on L. salivarius (5% CO2, BHI broth), the “MIC L. salivarius” value came out at 16 µg/mL (≈ 7.82 µM).
On to `CC(=O)N[C@@H](CC(C)C)C(=O)N[C@@H](CCCNC(=N)N)C(=O)N[C@H](C(=O)N[C@@H](CCCNC(=N)N)C(=O)N[C@@H](CS)C(=O)N[C@@H](C)C(=O)N[C@@H](CO)C(=O)NC(C)(C)C(=O)N[C@@H](CC(C)C)C(=O)N[C@@H](CCCNC(=N)N)C(=O)N[C@@H](CCCCN)C(=O)N[C@@H](CC(C)C)C(=O)NC(C)(C)C(=O)N[C@@H](CCCCN)C(=O)N[C@@H](CCCNC(=N)N)C(=O)N[C@@H](CC(C)C)C(=O)N[C@@H](CC(C)C)C(N)=O)C(C)C` [SEQ ID NO: 8, Acetyl-LRVRCAS-aib-LRKL-aib-KRLL-CONH2] (Ac-LRVRCAS[Aib]LRKL[Aib]KRLL-NH2), for which, in the test with E. coli, the “MIC E. coli” value was determined as 8 µg/mL (≈ 3.93 µM). Also, in the test on P. gingivalis, the “MIC P. gingivalis” value amounted to 64 µg/mL (≈ 31.4 µM). Further, the “MIC L. salivarius” value against L. salivarius was 16 µg/mL (≈ 7.86 µM).
Consider `CC(=O)N[C@H](CC(C)C)C(=O)N[C@H](CC(C)C)C(=O)N[C@H](CCCNC(=N)N)C(=O)N[C@H](CCCCN)C(=O)NC(C)(C)C(=O)N[C@H](CC(C)C)C(=O)N[C@H](CCCCN)C(=O)N[C@H](CCCCN)C(=O)N[C@H](CC(C)C)C(=O)NC(C)(C)C(=O)N[C@H](CO)C(=O)N[C@H](C)C(N)=O` [SEQ ID NO: 5, Acetyl-llrk-Aib-lkkl-Aib-sa-amide] (Ac-[dL][dL][dR][dK][Aib][dL][dK][dK][dL][Aib][dS][dA]-NH2), for which the “MIC E. coli” value against E. coli is 16 µg/mL (≈ 11.6 µM). Besides, in the test on P. gingivalis, the “MIC P. gingivalis” value amounted to 16 µg/mL (≈ 11.6 µM).
Consider `CC(=O)N[C@@H](CC(C)C)C(=O)N[C@@H](CC(C)C)C(=O)N[C@@H](CCCNC(=N)N)C(=O)N[C@@H](CCCCN)C(=O)NC(C)(C)C(=O)N[C@@H](CC(C)C)C(=O)N[C@@H](CCCNC(=N)N)C(=O)N[C@@H](CCCCN)C(=O)N[C@@H](CC(C)C)C(=O)NC(C)(C)C(=O)N[C@@H](CO)C(=O)N[C@@H](C)C(=O)N[C@@H](CO)C(=O)NC(C)(C)C(=O)N[C@@H](CC(C)C)C(=O)N[C@@H](CCCNC(=N)N)C(=O)N[C@@H](CCCCN)C(=O)N[C@@H](CC(C)C)C(=O)NC(C)(C)C(=O)N[C@@H](CCCCN)C(=O)N[C@@H](CCCNC(=N)N)C(=O)N[C@@H](CC(C)C)C(=O)N[C@@H](CC(C)C)C(N)=O` [SEQ ID NO: 7, Acetyl-LLRK-aib-LRKL-aib-SAS-aib-LRKL-aib-KRLL-CONH2] (Ac-LLRK[Aib]LRKL[Aib]SAS[Aib]LRKL[Aib]KRLL-NH2), for which the “MIC E. coli” value in the test with E. coli was determined as 8 µg/mL (≈ 2.98 µM). The “MIC P. gingivalis” value in the test on P. gingivalis was 16 µg/mL (≈ 5.95 µM). In the test with L. salivarius, the “MIC L. salivarius” value came out at 8 µg/mL (≈ 2.98 µM).
For the molecule `CC(C)C[C@H](NC(=O)[C@H](CC(C)C)NC(=O)[C@H](CCCNC(=N)N)NC(=O)[C@H](CCCCN)NC(=O)C(C)(C)NC(=O)[C@H](CC(C)C)NC(=O)[C@H](CCCCN)NC(=O)[C@H](CCCNC(=N)N)NC(=O)[C@H](CC(C)C)NC(=O)C(C)(C)NC(=O)[C@H](CO)NC(=O)[C@H](C)NC(=O)c1ccccn1)C(N)=O` [SEQ ID NO: 2, Picolinyl-AS-aib-LRKL-aib-KRLL-amide] (Picolinoyl-AS[Aib]LRKL[Aib]KRLL-NH2), in the test on E. coli, the “MIC E. coli” value was determined as 32 µg/mL (≈ 21.7 µM). The “MIC P. gingivalis” value with P. gingivalis was 2 to 32 µg/mL. In addition, the “MIC L. salivarius” value in the test on L. salivarius is 8 µg/mL (≈ 5.44 µM).
`CC(C)C[C@@H]1NC(=O)[C@H](CC(C)C)NC(=O)[C@H](CCCNC(=N)N)NC(=O)[C@H](CCCCN)NC(=O)C(C)(C)NC(=O)[C@H](CC(C)C)NC(=O)[C@H](CCCCN)NC(=O)[C@H](CCCNC(=N)N)NC(=O)[C@H](CC(C)C)NC(=O)[C@@H](NC(=O)[C@H](CO)NC(=O)[C@H](C)NC(=O)c2ccccn2)CSSC[C@@H](C(N)=O)NC1=O` [SEQ ID NO: 3, Picolinyl-AS-C-LRKL-aib-KRLL-C-amide] (Picolinoyl-ASCLRKL[Aib]KRLLC-NH2; disulfide 3-13): in the test on P. gingivalis (anaerobic BHI broth), the “MIC P. gingivalis” value worked out at 2 µg/mL (≈ 1.26 µM).
For the molecule `CC(=O)N[C@@H](CC(C)C)C(=O)N[C@@H](CCCNC(=N)N)C(=O)N[C@H](C(=O)N[C@@H](CCCNC(=N)N)C(=O)N[C@@H](CC(C)C)C(=O)N[C@@H](C)C(=O)N[C@@H](CO)C(=O)N[C@@H](Cc1c[nH]cn1)C(=O)N[C@@H](CC(C)C)C(=O)N[C@@H](CCCNC(=N)N)C(=O)N[C@@H](CCCCN)C(=O)N[C@@H](CC(C)C)C(=O)N[C@@H](CCCNC(=N)N)C(=O)N[C@@H](CCCCN)C(=O)N[C@@H](CCCNC(=N)N)C(=O)N[C@@H](CC(C)C)C(=O)N[C@@H](CC(C)C)C(=O)N[C@@H](C)C(=O)N[C@@H](CO)C(=O)NC(C)(C)C(=O)N[C@@H](CC(C)C)C(=O)N[C@@H](CCCNC(=N)N)C(=O)N[C@@H](CCCCN)C(=O)N[C@@H](CC(C)C)C(=O)NC(C)(C)C(=O)N[C@@H](CCCCN)C(=O)N[C@@H](CCCNC(=N)N)C(=O)N[C@@H](CC(C)C)C(=O)N[C@@H](CC(C)C)C(N)=O)C(C)C` [SEQ ID NO: 12, Acetyl-LRVRLASHLRKLRKRLLAS-aib-LRKL-aib-KRLL-CONH2] (Ac-LRVRLASHLRKLRKRLLAS[Aib]LRKL[Aib]KRLL-NH2), in the test with E. coli, the “MIC E. coli” value was 4 µg/mL (≈ 1.14 µM). In addition, the “MIC P. gingivalis” value against P. gingivalis came to 16 µg/mL (≈ 4.55 µM). In the test with L. salivarius, the “MIC L. salivarius” value came out at 64 µg/mL (≈ 18.2 µM).
The matching figures for `CC(=O)N[C@H](C)C(=O)N[C@H](CO)C(=O)NC(C)(C)C(=O)N[C@H](CC(C)C)C(=O)N[C@H](CCCNC(=N)N)C(=O)N[C@H](CCCCN)C(=O)N[C@H](CC(C)C)C(=O)NC(C)(C)C(=O)N[C@H](CCCCN)C(=O)N[C@H](CCCNC(=N)N)C(=O)N[C@H](CC(C)C)C(=O)N[C@H](CC(C)C)C(N)=O` [SEQ ID NO: 6, Acetyl-as-aib-lrkl-aib-krll-amide] (Ac-[dA][dS][Aib][dL][dR][dK][dL][Aib][dK][dR][dL][dL]-NH2): 8 µg/mL (≈ 5.68 µM), 8 µg/mL (≈ 5.68 µM) and 8 µg/mL (≈ 5.68 µM).
